Results from patent US8299178B2, “Stable micelles formed with diblock copolymers of critical micelle concentration copolymer and temperature-sensitive copolymer” (National Tsing Hua University, priority 2009, dated 2012).

Legend:
[1] = tested on: HeLa cells; assay: MTT cytotoxicity test using HeLa cells; format: cell-based, human
Protocol: The Dox activities of free Dox and Dox-mixed micelles were determined by performing cytotoxicity tests using HeLa cells (5×10^3 cell/mL). Cells that survived after incubation were estimated by a tetrazolium dye (MTT) assay. Dox-mPEG-b-P(NnPAAm-co-VIm) micelle was used for comparison. […] The IC50 of free Dox and Dox-loaded micelles are summary in Table 3.
Introducing mPEG-b-PLA into the micelle structure not only decreases mPEG-b-P(NIPAAm-co-VIm) quantity, decreases material cytotoxicity with a positive charge (i.e. VIm), but also stabilizes the micellar structure for biomedical use.

[2] = tested on: HeLa cells; assay: Internalization of Dox in HeLa cells by confocal laser scanning microscopy; format: cell-based, human; conditions: Dox ca. 10 μg/mL, one hour of incubation
Protocol: Dox accumulated in HeLa cells was localized using a Carl Zeiss LSM5 PASCAL confocal laser scanning microscopy (CLSM). The HeLa cells were seeded 1×10^5 per well on cover-slides for 24 h and were then treated with free Dox or Dox-mixed micelles. The concentration of Dox was ca. 10 μg/mL. Dox-mixed micelles were washed with PBS to remove untrapped Dox twice before use. After some time, the cells were washed twice with PBS, and then mounted on a slide with 4 wt % paraformaldehyde for CLSM observation. Fluorescence was observed by confocal microscope at 488 nm for excitation and an LP filter of 590 nm for Dox detection.
The time-dependent fluorescence intensity of Dox after Dox-mixed micelles incubated with human cervical epithelioid carcinoma (HeLa) cells was measured with free Dox (Dox-HCl) being used for comparison. […] Subsequently, the acidic endosomal compartment (ca. pH 5.5-5.0) induced Dox release due to mixed micelle dissociation by VIm protonation.

[3] = literature value; cited from earlier work

## COc1cccc2c1C(=O)c1c(O)c3c(c(O)c1C2=O)C[C@@](O)(C(=O)CO)C[C@@H]3O[C@H]1C[C@H](N)[C@H](O)[C@H](C)O1 [Free Dox, doxorubicin]
[1]
  Dox activity compared with the Dox-loaded micelles: more potent activity
[2]
  localization of Dox in cells: accumulated in both the nucleus and the cytoplasm
[3]
  pKa: ~7
